Results as given in PubChem BioAssay AID2060493 (Molecular Pharmacology Branch, DTP, NCI, 2025).

System: 616215-338-R-J1-PDC tumor spheroids, viability
Test: Anticancer human tumor 616215-338-R-J1-PDC patient-derived colon adenocarcinoma cell line growth inhibition [GQUAD]
Conditions: spheroids with HUVEC and MSC; for IC50: curve of first compound; for viability, T/C: stronger effect = lower value
How it was run: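 Multi-cell-type spheroids of tumor cells with HUVEC and mesenchymal stem cells, treated with drug combinations. Concentrations descend in half-log steps from near clinical Cmax, or from 10 microM where Cmax is unknown; viability read-out.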

[1] = second compound 0.0316 µM, first compound 0.0316 µM
[2] = second compound 0.0316 µM, first compound 0.1 µM
[3] = second compound 0.0316 µM, first compound 0.316 µM
[4] = second compound 0.0316 µM, first compound 1 µM
[5] = second compound 0.0316 µM, first compound 3.16 µM
[6] = second compound 0.0316 µM, first compound 10 µM
[7] = second compound 0.1 µM, first compound 0.0316 µM
[8] = second compound 0.1 µM, first compound 0.1 µM
[9] = second compound 0.1 µM, first compound 0.316 µM
[10] = second compound 0.1 µM, first compound 1 µM
[11] = second compound 0.1 µM, first compound 3.16 µM
[12] = second compound 0.1 µM, first compound 10 µM
[13] = second compound 0.316 µM, first compound 0.0316 µM
[14] = second compound 0.316 µM, first compound 0.1 µM
[15] = second compound 0.316 µM, first compound 0.316 µM
[16] = second compound 0.316 µM, first compound 1 µM
[17] = second compound 0.316 µM, first compound 3.16 µM
[18] = second compound 0.316 µM, first compound 10 µM
[19] = second compound 1 µM, first compound 0.0316 µM
[20] = second compound 1 µM, first compound 0.1 µM
[21] = second compound 1 µM, first compound 0.316 µM
[22] = second compound 1 µM, first compound 1 µM
[23] = second compound 1 µM, first compound 3.16 µM
[24] = second compound 1 µM, first compound 10 µM
[25] = second compound 3.16 µM, first compound 0.0316 µM
[26] = second compound 3.16 µM, first compound 0.1 µM
[27] = second compound 3.16 µM, first compound 0.316 µM
[28] = second compound 3.16 µM, first compound 1 µM
[29] = second compound 3.16 µM, first compound 3.16 µM
[30] = second compound 3.16 µM, first compound 10 µM
[31] = second compound 10 µM, first compound 0.0316 µM
[32] = second compound 10 µM, first compound 0.1 µM
[33] = second compound 10 µM, first compound 0.316 µM
[34] = second compound 10 µM, first compound 1 µM
[35] = second compound 10 µM, first compound 3.16 µM
[36] = second compound 10 µM, first compound 10 µM
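Also: spheroids exposed to agents for 7 days before readout.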
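For viability, T/C in this document: percent viability relative to DMSO vehicle control wells taken as 100%.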

## C#Cc1c(F)ccc2cc(O)cc(-c3ncc4c(N5CC6CCC(C5)N6)nc(OCC56CCCN5CC(F)C6)nc4c3F)c12 (stereo unspecified) + CN(C)c1ccc(Nc2c3ccc(NC(=O)CCN4CCCC4)cc3nc3cc(NC(=O)CCN4CCCC4)ccc23)cc1
Second compound 0.0316 µM
  IC50: > 10 µM
Second compound 0.1 µM
  IC50: 9.07 µM
Second compound 0.316 µM
  IC50: > 10 µM
Second compound 1 µM
  IC50: 9.22 µM
Second compound 3.16 µM
  IC50: 8.57 µM
Second compound 10 µM
  IC50: 3.02 µM
[1]
  viability, T/C: 91.1%
[2]
  viability, T/C: 103%
[3]
  viability, T/C: 102%
[4]
  viability, T/C: 113%
[5]
  viability, T/C: 108%
[6]
  viability, T/C: 61.4%
[7]
  viability, T/C: 103%
[8]
  viability, T/C: 105%
[9]
  viability, T/C: 111%
[10]
  viability, T/C: 111%
[11]
  viability, T/C: 105%
[12]
  viability, T/C: 44.9%
[13]
  viability, T/C: 106%
[14]
  viability, T/C: 109%
[15]
  viability, T/C: 110%
[16]
  viability, T/C: 105%
[17]
  viability, T/C: 90.4%
[18]
  viability, T/C: 64.3%
[19]
  viability, T/C: 109%
[20]
  viability, T/C: 100%
[21]
  viability, T/C: 106%
[22]
  viability, T/C: 105%
[23]
  viability, T/C: 98%
[24]
  viability, T/C: 46.3%
[25]
  viability, T/C: 109%
[26]
  viability, T/C: 86.8%
[27]
  viability, T/C: 100%
[28]
  viability, T/C: 93.5%
[29]
  viability, T/C: 106%
[30]
  viability, T/C: 42.3%
[31]
  viability, T/C: 99.4%
[32]
  viability, T/C: 79.6%
[33]
  viability, T/C: 94.2%
[34]
  viability, T/C: 67.5%
[35]
  viability, T/C: 50.1%
[36]
  viability, T/C: 22.4%

## CC(=O)O[C@H]1C(=O)[C@@]2(C)[C@H]([C@H](OC(=O)c3ccccc3)[C@]3(O)C[C@H](OC(=O)[C@H](O)[C@@H](NC(=O)c4ccccc4)c4ccccc4)C(C)=C1C3(C)C)[C@]1(OC(C)=O)CO[C@@H]1C[C@@H]2O + Cc1[nH]c2ccc(F)cc2c1-c1nc2c3cccnc3c3ncccc3c2[nH]1
Second compound 0.0316 µM
  IC50: < 0.0316 µM
Second compound 0.1 µM
  IC50: < 0.0316 µM
Second compound 0.316 µM
  IC50: < 0.0316 µM
Second compound 1 µM
  IC50: < 0.0316 µM
Second compound 3.16 µM
  IC50: < 0.0316 µM
Second compound 10 µM
  IC50: < 0.0316 µM
[1]
  viability, T/C: 25.5%
[2]
  viability, T/C: 21.1%
[3]
  viability, T/C: 16.1%
[4]
  viability, T/C: 14.5%
[5]
  viability, T/C: 13.6%
[6]
  viability, T/C: 12.9%
[7]
  viability, T/C: 31.7%
[8]
  viability, T/C: 15.6%
[9]
  viability, T/C: 15.4%
[10]
  viability, T/C: 12.1%
[11]
  viability, T/C: 11.7%
[12]
  viability, T/C: 13.8%
[13]
  viability, T/C: 22.9%
[14]
  viability, T/C: 18.9%
[15]
  viability, T/C: 15.5%
[16]
  viability, T/C: 11.6%
[17]
  viability, T/C: 13.1%
[18]
  viability, T/C: 11.6%
[19]
  viability, T/C: 19.6%
[20]
  viability, T/C: 12.4%
[21]
  viability, T/C: 12.8%
[22]
  viability, T/C: 11.8%
[23]
  viability, T/C: 13.2%
[24]
  viability, T/C: 14.7%
[25]
  viability, T/C: 14.9%
[26]
  viability, T/C: 14.7%
[27]
  viability, T/C: 15.1%
[28]
  viability, T/C: 10.2%
[29]
  viability, T/C: 10.8%
[30]
  viability, T/C: 11.1%
[31]
  viability, T/C: 16%
[32]
  viability, T/C: 12.5%
[33]
  viability, T/C: 14.9%
[34]
  viability, T/C: 11.5%
[35]
  viability, T/C: 10.1%
[36]
  viability, T/C: 10.8%

## CC(C)n1c(=O)n(C)c2cnc3cc(F)c(-c4ccc(OCCCN5CCCCC5)nc4)cc3c21 + Cc1[nH]c2ccc(F)cc2c1-c1nc2c3cccnc3c3ncccc3c2[nH]1
Second compound 0.0316 µM
  IC50: > 10 µM
Second compound 0.1 µM
  IC50: > 10 µM
Second compound 0.316 µM
  IC50: > 10 µM
Second compound 1 µM
  IC50: > 10 µM
Second compound 3.16 µM
  IC50: > 10 µM
Second compound 10 µM
  IC50: > 10 µM
[1]
  viability, T/C: 102%
[2]
  viability, T/C: 98.8%
[3]
  viability, T/C: 97.5%
[4]
  viability, T/C: 101%
[5]
  viability, T/C: 117%
[6]
  viability, T/C: 70.9%
[7]
  viability, T/C: 103%
[8]
  viability, T/C: 99.6%
[9]
  viability, T/C: 100%
[10]
  viability, T/C: 107%
[11]
  viability, T/C: 112%
[12]
  viability, T/C: 85.7%
[13]
  viability, T/C: 107%
[14]
  viability, T/C: 99.3%
[15]
  viability, T/C: 100%
[16]
  viability, T/C: 106%
[17]
  viability, T/C: 100%
[18]
  viability, T/C: 72.9%
[19]
  viability, T/C: 99%
[20]
  viability, T/C: 116%
[21]
  viability, T/C: 97.5%
[22]
  viability, T/C: 93.6%
[23]
  viability, T/C: 101%
[24]
  viability, T/C: 95.7%
[25]
  viability, T/C: 99%
[26]
  viability, T/C: 93.8%
[27]
  viability, T/C: 87.3%
[28]
  viability, T/C: 98.7%
[29]
  viability, T/C: 104%
[30]
  viability, T/C: 57.4%
[31]
  viability, T/C: 94.5%
[32]
  viability, T/C: 94.7%
[33]
  viability, T/C: 99.1%
[34]
  viability, T/C: 91.2%
[35]
  viability, T/C: 107%
[36]
  viability, T/C: 87%
